# Assay results from PMC5931107, “Clinical pharmacodynamic/exposure characterisation of the multikinase inhibitor ilorasertib (ABT-348) in a phase 1 dose-escalation trial” (British Journal of Cancer, 2018).
# Where two headings read alike, the source gives them in different places. Marks after values point to notes of the source that are not given here.
# Tests used:
# advanced solid tumours = test: Tumour response, RECIST version 1.1; assay type: in vivo, human; conditions: Arm II
# Experimental: Disease effect endpoints were determined using Response Evaluation Criteria In Solid Tumors version 1.1. Tumour burden assessment was conducted within 21 days prior to cycle 1 day 1, every 8 weeks thereafter, and at the final visit if not performed in the past 4 weeks.
# [1] = Plasma pharmacokinetics, Arm I (oral QD), phase 1 trial; assay type: in vivo, human; conditions: for AUC(0-t): AUCt
# Experimental: Pharmacokinetics of ilorasertib were evaluated in the dose-escalation cohort on blood samples that were collected on cycle 1 days 1 and 15. Parameters determined: Cmax, time to Cmax (Tmax), terminal phase elimination half-life (t1/2), clearance, apparent oral clearance (CL/F), and area under the plasma concentration-time curve from time 0 to time of last measurable concentration (AUCt) and from time 0 to infinity (AUC∞). For Arm I, blood samples were collected prior to dosing and at 0.5, 1, 2, 3, 4, 6, 8, 10 or 12, and 24 h after dosing on cycle 1 days 1 and 15; of note, for institutions not able to collect the 10- or 12-h post-dose sample, the 24-h sample was replaced with 22-h and 28-h post-dose samples. In Arm II, for the first dose, blood samples were collected pre-dose and at 1, 2, 3, and 4 h post-dose on cycle 1 days 1 and 15; for the second dose, samples were collected pre-dose and at 1, 2, 3, 4, 18, and 24 h after second dose on cycle 1 days 1 and 15. In Arm III, blood samples were collected prior to infusion, at 1 h 55 min (just before end of infusion), and at 0.5, 1, 2, 4, 6, 8, 10, and 24 h after end of infusion on cycle 1 days 1 and 15; here also, for institutions not able to collect the 8-h or 10-h after-end-of-infusion samples, the 24-h sample was replaced with 22-h and 28-h post-dose samples. The liquid chromatography (LC)-mass spectrometry (MS)/MS method was developed and validated in the Bioanalysis Department of AbbVie. Fifty microliter of human plasma (K2EDTA as anticoagulant) was fortified with 300 μL of deuterium-stable labelled internal standard and mixed well. A HybridSPE precipitation plate (50 mg/96 wells, Supelco Analytical, Munich, Germany) was used to directly load and elute (under slight vacuum) the fortified samples into a clean collection plate. Samples were dried before reconstitution with 100 μL of 20/80 (v/v) acetonitrile/water, and injected for LC-MS/MS analysis. A Halo C8 (Wilmington, DE, USA; 2.7 μm, 2.1 × 30 mm) was used on an Agilent 1290 Infinity UPLC pump (Agilent Technologies, Santa Clara, CA) to carry out the separation. An isocratic condition with 25/75/0.1 (v/v/v) acetonitrile/water/98% formic acid was used as the mobile phase. The flow rate was set to be 0.6 mL/min. An MPS 3 C ([…] Ruhr, Germany) autosampler was used to introduce samples onto the UPLC system. An API 4000 mass spectrometer (Applied Biosystems, Foster City, CA) was used in the multiple reactions monitoring mode for the detection and quantitation of analyte. Descriptive statistics were used for demographic variables. The numbers and percentages of patients with treatment-emergent AEs (TEAEs) were tabulated using the Medical Dictionary for Regulatory Activities version 16.0 system organ class and preferred term, and further classified according to CTCAE version 4.0 criteria. The safety data set included all patients who received one or more doses of ilorasertib. The pharmacokinetic data set included all patients who received one or more doses of ilorasertib and had one or more pharmacokinetic samples. Values for pharmacokinetic parameters were determined using non-compartmental methods, with data analysed separately for each arm. A repeated measures analysis was performed for Tmax and dose-normalised Cmax, AUCt, and AUC∞. The model included random effects for patient and fixed effects for dose level, day, and the interaction of dose level and day. To assess effects of exposure on pharmacodynamic biomarkers, Cmax was employed as the directly measured marker of exposure for the rapid changes in DBP and PlGF pre-steady-state, while AUC∞ reflected exposure variability at the time of post-multiple-dose skin biopsy. Descriptive statistics were used to summarise ECOG performance status. The efficacy data set included all patients who received one or more doses of ilorasertib.
# Aurora B [2] = system: Aurora B; parameters: method as in PMID 22935731; conditions: 1 mM ATP; read-out: Biochemical IC50 (95% confidence limits); cited from earlier work
# PDGFR-α = system: PDGFR-α; parameters: method as in PMID 22935731; conditions: PDGFR-α cellular phosphorylation, ligand stimulated; read-out: Cellular PD marker IC50 (95% confidence limits); cited from earlier work
# Aurora B [3] = system: Aurora B; parameters: method as in PMID 22935731; conditions: phosphorylation of histone H3, read-out: Cellular PD marker IC50 (95% confidence limits); cited from earlier work
# [4] = system: TEL:VEGFR1 catalytic domain fusion; parameters: method as in PMID 22935731; conditions: BaF3 cells expressing TEL:VEGFR1, proliferation as surrogate readout; read-out: Cellular PD marker IC50 (95% confidence limits); cited from earlier work
# [5] = 40 mg BID, basal cell carcinoma patient
# [6] = 230 mg BID, adenocarcinoma of unknown primary site
smiles,measurement,setting,value
"Nc1ncc(-c2cnn(CCO)c2)c2scc(-c3ccc(NC(=O)Nc4cccc(F)c4)cc3)c12 [ilorasertib, Ilorasertib]",Best response,advanced solid tumours; [5],partial response
same,Best response,advanced solid tumours; [6],partial response
same,t1/2 (harmonic mean),"[1]; Arm I PO QD all doses, day 1, N=21",12.2 ± 6.9^d h
same,half-life,"[1]; human, in vivo, Mean t1/2",~12 h
same,Tmax,"[1]; human, in vivo, Time of peak plasma concentration",~4 h
same,Dose proportionality of exposure (Cmax and AUC),"[1]; human, in vivo, iv",approximately dose proportional
same,half-life,"[1]; human, in vivo, po, 10 mg, t1/2 (harmonic mean)",11.7 ± 1.4 h
same,AUCt,"[1]; human, in vivo, po, 20 mg","1.76 (3.23, 0.29) μg•h/mL"
same,AUC∞,"[1]; human, in vivo, po, 20 mg","1.46 (2.41, 0.51) μg•h/mL"
same,Cmax,"[1]; human, in vivo, po, 20 mg","0.08 (0.14, 0.02) μg/mL"
same,Tmax,"[1]; human, in vivo, po, 20 mg","5.0 (4.0, 6.0) h"
same,AUC(0-t),"[1]; human, in vivo, po, 20 mg",1010 ng·h/mL
same,AUC(0-inf),"[1]; human, in vivo, po, 20 mg",2260 ng·h/mL
same,Tmax,"[1]; human, in vivo, po, 20 mg, Tmax",5 h
same,AUCt,"[1]; human, in vivo, po, 40 mg",1.15 µg·h/mL
same,AUC∞/dose,"[1]; human, in vivo, po, 40 mg",41.0 ng·h/mL/mg
same,CL/F,"[1]; human, in vivo, po, 40 mg",24.4 L/h
same,AUC(0-t),"[1]; human, in vivo, po, 40 mg",640 ng·h/mL
same,AUC(0-inf),"[1]; human, in vivo, po, 40 mg",1640 ng·h/mL
same,Tmax,"[1]; human, in vivo, po, 40 mg, Tmax",8 h
same,half-life,"[1]; human, in vivo, po, 40 mg, t1/2 (harmonic mean)",11.5 h
same,AUCt,"[1]; human, in vivo, po, 80 mg",1.59 ± 1.04 µg·h/mL
same,AUC∞,"[1]; human, in vivo, po, 80 mg",2.75 ± 2.15 µg·h/mL
same,t1/2 (harmonic mean),"[1]; human, in vivo, po, 80 mg",16.8 ± 2.8 h
same,AUC(0-t),"[1]; human, in vivo, po, 80 mg",1900 ± 1100 ng·h/mL
same,AUC(0-inf),"[1]; human, in vivo, po, 80 mg",2820 ± 1540 ng·h/mL
same,Cmax,"[1]; human, in vivo, po, 80 mg, Cmax",220 ± 100 ng/mL
same,Tmax,"[1]; human, in vivo, po, 80 mg, Tmax",4 ± 2 h
same,half-life,"[1]; human, in vivo, po, 80 mg, t1/2 (harmonic mean)",16 ± 1.8 h
same,AUCt,"[1]; human, in vivo, po, 120 mg",2.25 ± 0.61 µg·h/mL
same,AUC∞,"[1]; human, in vivo, po, 120 mg",4.31 ± 2.38^c μg•h/mL
same,Cmax,"[1]; human, in vivo, po, 120 mg",250 ± 140 ng/mL
same,Tmax,"[1]; human, in vivo, po, 120 mg",4.1 ± 2.2 h
same,AUC(0-t),"[1]; human, in vivo, po, 120 mg",3600 ± 2500 ng·h/mL
same,AUC(0-inf),"[1]; human, in vivo, po, 120 mg",5400 ± 2620 ng·h/mL
same,Cmax,"[1]; human, in vivo, po, 120 mg, Cmax",490 ± 330 ng/mL
same,Tmax,"[1]; human, in vivo, po, 120 mg, Tmax",3.8 ± 2.2 h
same,AUC∞,"[1]; human, in vivo, po, 140 mg","4.13 (4.96, 3.31)^a μg•h/mL"
same,Cmax,"[1]; human, in vivo, po, 140 mg",330 ± 190 ng/mL
same,Tmax,"[1]; human, in vivo, po, 140 mg",10.1 ± 12.3 h
same,t1/2 (harmonic mean),"[1]; human, in vivo, po, 140 mg",15.8 ± 23.6 h
same,AUC(0-inf),"[1]; human, in vivo, po, 140 mg",5400 ± 1800 ng·h/mL
same,Cmax,"[1]; human, in vivo, po, 140 mg, Cmax",240 ± 130 ng/mL
same,half-life,"[1]; human, in vivo, po, 140 mg, t1/2 (harmonic mean)",10.1 h
same,Tmax,"[1]; human, in vivo, po, 180 mg",2.0 h
same,t1/2 (harmonic mean),"[1]; human, in vivo, po, 180 mg",11.6 h
same,Tmax,"[1]; human, in vivo, po, 180 mg, Tmax",4 ± 2 h
same,half-life,"[1]; human, in vivo, po, 180 mg, t1/2 (harmonic mean)",9.5 ± 2.7 h
same,Tmax,"[1]; human, in vivo, po, Tmax",4.2 ± 1.8 h
same,half-life,"[1]; human, in vivo, po, t1/2 (harmonic mean)",14 ± 4 h
same,IC50,PDGFR-α,16 nM
same,IC50,[4],0.3 nM
